The text below walks through data of patent publication US11299506B2, “Acylnucleoside phosphonates, prodrugs thereof and use thereof as medicament” (UNIVERSITE DE MONTPELLIER, priority 2017, dated 2022).

pIC50: −log10 of the molar value. Where two headings read alike, the source gives them in different places.

The subject of test [1] is Plasmodium falciparum (strain 3D7). The experiment in a line: In vitro anti-Plasmodium falciparum activity (infected erythrocytes, radioactive precursor incorporation). It is filed as cell-based. As for the experimental part:
After 48 h of incubation in the absence (control) or in the presence of the compound to be tested, the radioactive precursor is added, and the reaction is continued for another 18 h, then stopped by freezing at −80° C. The macromolecules, including the radiolabeled nucleic acids, are collected on a filter. The incorporated radioactivity is measured with the scintillation counter after addition of scintillation cocktail. The radioactive background noise is measured based on a suspension of healthy erythrocytes (same conditions as for parasite-containing suspensions). The viability of the parasites is expressed as a (nonspecific derived) percentage of the control. […] The IC50 values thus determined are the result of at least two experiments carried out independently in duplicate. Batches A and B correspond to two different syntheses according to the same procedure and carried out in their totality by two different operators, at a six month interval.

Another test relates to K562 cells. The test can be described thus: Toxicity with respect to K562 cells ([3H]-thymidine incorporation). It is filed as cell-based, human. The conditions noted are these: 3H-thymidine detection; Batch B; 24 h incubation; read-out: Activity against the K562 cells, 3H-Thymidine, Batch B IC50. Here is the method:
Suspensions of human cells (8000 cells per well) are cultured in complete RPMI medium (RPMI 1640 medium, L-glutamine, penicillin/streptomycin and 10% fetal calf serum) (200 μL) either in the absence of the compound to be tested (controls), or in contact with variable concentrations of said compound.
After 24 h of incubation (or approximately one cell cycle), 0.7 μCi of [^3H]-thymidine (radiolabeled precursor of the synthesis of the nucleic acids) diluted in 30 μL of complete RPMI medium are added to each well. After 6 h of additional incubation, the thymidine incorporation reaction is stopped by freezing at −80° C. As for the determination of the in vitro anti-malarial activity, the macromolecules, including the radiolabeled nucleic acids, are collected on a filter. The incorporated radioactivity is measured with the scintillation counter after addition of scintillation cocktail.
The radioactive background noise is measured based on complete RPMI medium. The viability of the cells is expressed as a (nonspecific derived) percentage of the control. The measurements are analyzed using Excel and Prism software, and the IC50 (concentration capable of in vitro inhibition of 50% of the growth of the cells) is determined graphically.
The IC50 values thus determined are the result of at least two experiments performed independently in duplicate.
In general terms: Dividing cells build labelled thymidine or BrdU into new DNA.

The next test relates to Babesia divergens. The test can be described thus: In vitro anti-Babesia divergens activity (infected erythrocytes, [3H]-hypoxanthine incorporation). It is filed as cell-based. The conditions noted are these: 16 h contact, read-out: Activity against Babesia divergens IC50. Here is the method: After 16 h of incubation in the absence (control) or in the presence of the compound, the radioactive precursor is added and the reaction is continued for another 8 h and then stopped by freezing at −80° C. As for the determination of the in vitro anti-parasitic activity, the macromolecules, including the radiolabeled nucleic acids, are collected on a filter. The incorporated radioactivity is measured with the scintillation counter after addition of scintillation cocktail. The radioactive background noise is measured based on a suspension of healthy erythrocytes (same conditions as for the parasite-containing suspensions). The viability of the parasites is expressed as a (nonspecific derived) percentage of the control. […] The IC50 values thus determined are the result of at least two experiments performed independently in duplicate.

A further test concerns Toxoplasma gondii. The test can be described thus: In vitro anti-toxoplasmosis activity by plaque assay on HFF fibroblast monolayer. The conditions noted are these: 7 days, average of 2 values. It is filed as cell-based. Here is the method:
This test is based on the capability of Toxoplasma gondii in its intracellular form (tachyzoite) to bring about the lysis of its host cell (here a monolayer of fibroblasts) and to then infect the neighboring cells so that over time (days) a macroscopically visible hole in the monolayer of cells becomes apparent and its area can be measured. In the 24-well culturing plates, approximately 80 parasites are added to a monolayer of fibroblasts (HFF cells) for 7 days in the presence or absence of drug. The cells are then fixed with 4% paraformaldehyde, and then stained with Giemsa. The cells are visualized under the microscope, and the size of the lysis plaques is measured using the software Zen® (Zeiss). The cells are maintained in culture in complete medium (DMEM+5% fetal calf serum+glutamine+penicillin/streptomycin). The ability of the drug to inhibit the growth of Toxoplasma gondii is proportional to the decrease in the size of the lysis plaque.
The results obtained are collected in Table 4 (average of 2 values) below and in FIG. 1.

[2] abbreviates: read-out: Activity against P. falciparum (3D7), detection 3H-Hypoxanthine, Batch B IC50.
Where [3] appears, read: Plasmodium falciparum, 3D7, Erythrocyte, 3H-ethanolamine detection, Batch A, 48 h contact, read-out: Activity against P. falciparum (3D7), detection 3H-Ethanolamine, Batch A IC50.
Setting [4] is: Plasmodium falciparum, 3D7, Erythrocyte, 3H-hypoxanthine detection, Batch A, 48 h contact, read-out: Activity against P. falciparum (3D7), detection 3H-Hypoxanthine, Batch A IC50.
[5] abbreviates: read-out: Activity against P. falciparum (3D7), detection 3H-Ethanolamine, Batch A IC50.
[6] abbreviates: read-out: Activity against P. falciparum (3D7), detection 3H-Hypoxanthine, Batch A IC50.

One may read the pIC50 as the negative decadic logarithm of the IC50, by convention in mol/L. Consider `CCN(CC)CCCC(C)Nc1ccnc2cc(Cl)ccc12` (stereo not shown) [Chloroquine, reference compound], for which the pIC50 is 7.85 in test [1] (Plasmodium falciparum, 3D7, Erythrocyte, read-out: Activity against P. falciparum (3D7), detection 3H-Ethanolamine, Batch A IC50) and 7.84 in test [1] (Plasmodium falciparum, 3D7, Erythrocyte, read-out: Activity against P. falciparum (3D7), detection 3H-Hypoxanthine, Batch A IC50).
On to `COc1nc(N)nc2c1ncn2C[C@@H](O)CCP(=O)(OCCSC(=O)c1ccccc1)OCCSC(=O)c1ccccc1` [Compound 4, 6-O-methyl-9-[(2S)-2-hydroxy-4-bis(S-benzoyl-2-thioethyl)phosphonobutyl]-2-amino Purine], for which the pIC50 in test [1] (setting [2]) is 4.24; in the test on K562 cells it was 4.66.
In the same order, the values of `COc1nc(N)nc2c1ncn2C[C@H](O)CCP(=O)(OCCSC(=O)c1ccccc1)OCCSC(=O)c1ccccc1` [Compound 6, 6-O-methyl-9-[(2R)-2-hydroxy-4-bis(S-benzoyl-2-thioethyl)phosphonobutyl]-2-aminopurine] are 4.21 and 4.70.
Regarding `Nc1ncnc2c1ncn2C[C@@H](O)CP(=O)(O)O` [Compound 10, N-9-[(2R)-2-hydroxy-3-phosphonopropyl] adenine], the pIC50 in test [1] (setting [3]) and in test [1] (setting [4]) was below 3.00 in each case.
As for `Nc1nc2c(ncn2C[C@@H](O)CP(=O)(O)O)c(=O)[nH]1` [Compound 11, N-9-[(2R)-2-hydroxy-3-phosphonopropyl]guanine], the pIC50 in test [1] (setting [3]) was below 3.00; in test [1] (setting [4]) it was at most 3.00.
Regarding `Nc1ncc2ncn(CC[C@@H](O)CP(=O)(O)O)c2n1` [Compound 16], the pIC50 in test [1] (setting [4]) was 4.21; in the test on Babesia divergens (Babesia divergens, Erythrocyte), below 4.00.
On to `O=P(O)(O)C[C@H](O)CCn1cnc2cc(Cl)c(Cl)cc21` [Compound 18], for which the pIC50 in test [1] (setting [4]) was below 4.00; in the test on Babesia divergens (Babesia divergens, Erythrocyte), 3.33.
As to `O=c1[nH]c(=O)c2ncn(CC[C@@H](O)CP(=O)(O)O)c2[nH]1` [Compound 19], the pIC50 was below 4.00 in test [1] (setting [4]) and below 4.00 in the test on Babesia divergens (Babesia divergens, Erythrocyte).
In the case of `O=c1[nH]cnc2c1ncn2CC[C@@H](O)CP(=O)(O)O` [Compound 20], the pIC50 in test [1] (setting [4]) is below 3.00; with Babesia divergens (Babesia divergens, Erythrocyte), below 4.00.
With `O=c1[nH]cnc2c1ncn2CC[C@H](O)CP(=O)(O)O` [Compound 21], the negative-log IC50 (pIC50) in test [1] (setting [4]) was below 3.00; in the test with Babesia divergens (Babesia divergens, Erythrocyte) it was below 4.00.
Take `O=c1[nH]c(=O)c2ncn(CC[C@H](O)CP(=O)(O)O)c2[nH]1` [Compound 22]: the pIC50 in test [1] (setting [4]) was 3.04; with Babesia divergens (Babesia divergens, Erythrocyte), below 3.00.
As for `N=C(N)c1ccc(OCCCCCOc2ccc(C(=N)N)cc2)cc1` [Pentamidine, reference compound], the pIC50 in the test on Babesia divergens (Babesia divergens, Erythrocyte) was 6.74.
In the case of “N-9-[(2R)-2-hydroxy-3-phosphonobutyl]guanine [Compound 5]”, the pIC50 in test [1] (setting [5]) is 7.37; in test [1] (setting [6]), 7.24; in test [1] (setting [2]), 7.11; with K562 cells it was 2.00; with Babesia divergens it was 6.32. Further, the entries for the “Inhibition of the growth of T. gondii” value in the test on Toxoplasma gondii (Conc = 5 μM) and in the test with Toxoplasma gondii (Conc = 50 μM) were 42 % of the controls and 100 % of the controls, respectively.
“N-9-[(2R)-2-hydroxy-3-phosphonopropyl]2,6-diamino purine [Compound 13]”: the pIC50 in test [1] (setting [5]) is 3.13; in test [1] (setting [6]), 3.29.
For “N-9-[(2S)-2-hydroxy-3-phosphono propyl]guanine [Compound 3]”, the pIC50 in test [1] (setting [5]) was 5.22; in test [1] (setting [6]), 5.48; in test [1] (setting [2]), 5.15; in the test on K562 cells it was below 2.30; in the test with Babesia divergens, 5.44. The “Inhibition of the growth of T. gondii” value is 0 % of the controls in the test on Toxoplasma gondii (Conc = 5 μM) and 18 % of the controls with Toxoplasma gondii (Conc = 50 μM).
“N-9-[(2S)-2-hydroxy-3-phosphono propyl]guanine [Compound 12]”: the pIC50 with Babesia divergens is below 3.00.
As for “N-9-[(2S)-2-hydroxy-3-phosphonopropyl]2,6-diamino purine [Compound 14]”, the pIC50 is 3.19 in test [1] (setting [5]) and 3.23 in test [1] (setting [6]).
Take “N-9-[(2S)-2-hydroxy-3-phosphonopropyl] adenine [Compound 9]”: the pIC50 in test [1] (setting [5]) and in test [1] (setting [6]) was below 3.00 in each case.
For the compound “N-9[(2R)-2-hydroxy-4-phosphonobutyl]adenine [Compound 2]”, the negative-log IC50 (pIC50) in test [1] (setting [5]) and in test [1] (setting [6]) was below 3.00 each time.
